# From patent publication US8389523B2, “Substituted quinoxaline and an agrochemical composition thereof” (Kumiai Chemical Industry Co., Ltd., priority 2007, dated 2013)
# Key:
# Assay type in all cases: in vivo
# Design in all cases: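 grade 0 to 5 of growth suppression where 5 is 90% or more and 0 below 10%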
# Amaranthus viridis L. [1] = assay: Herbicidal effects in upland field foliar treatment (Test Example 3); settings: 1000 g active ingredient per hectare, 14th day after treatment, criteria of Table 138
# Protocol: (§1) Test Example 3 Test on Herbicidal Effects in Upland Field Foliar Treatment A 80-cm^2 plastic pot was filled with upland field soil. Seeds of Echinochloa crus-galli (L.) P. Beauv. var. crus-galli, Abutilon theophrasti medicus and Amaranthus viridis L. were sowed, and the plants were grown for two weeks in a greenhouse. A wettable powder formulation prepared according to Preparation Example 1 was diluted with water, and was sprayed with a small sprayer to perform foliar application over the entirety of plants from the upper side, in an amount equivalent to 1000 liters per hectare, such that 1000 g of the active ingredient per hectare was applied. Thereafter, the plants were grown in a greenhouse, and on the 14th day after the treatment, the herbicidal effects were investigated according to the criteria described in the Table 138 shown above.
# [2] = tested on: Abutilon theophrasti medicus; assay: as above; settings: 1000 g active ingredient per hectare, 14th day after treatment, criteria of Table 138
# Protocol: as §1
# [3] = tested on: Echinochloa crus-galli (L.) P. Beauv. var. crus-galli; assay: as above; settings: 1000 g active ingredient per hectare, 14th day after treatment, criteria of Table 138
# Protocol: as §1
# Amaranthus viridis L. [4] = assay: Herbicidal effects in upland field soil treatment (Test Example 2); settings: 1000 g active ingredient per hectare, 21st day after treatment, criteria of Table 138
# Protocol: (§2) Test Example 2 Test on Herbicidal Effects in Upland Field Soil Treatment A 80-cm^2 plastic pot was filled with upland field soil. Seeds of Abutilon theophrasti medicus and Amaranthus viridis L. were sowed, and soil was covered. A wettable powder formulation prepared according to Preparation Example 1 was diluted with water, and was uniformly sprayed on the soil surface with a small sprayer, in an amount equivalent to 1000 liters per hectare, such that 1000 g of the active ingredient per hectare was applied. Thereafter, the plants were grown in a greenhouse, and on the 21st day after the treatment, the herbicidal effects were investigated according to the criteria described in the Table 138 shown above.
# [5] = tested on: Abutilon theophrasti medicus; assay: as above; settings: 1000 g active ingredient per hectare, 21st day after treatment, criteria of Table 138
# Protocol: as §2
# [6] = tested on: Monochoria vaginalis (Burm. f.) Presl var. plantaginea (Roxb.) Solms-Laub.; assay: Herbicidal effects in paddy field soil treatment (Test Example 1); settings: paddy field soil treatment; 1000 g of the active ingredient per hectare; wettable powder added dropwise on water surface; 21st day after treatment
# Protocol: (§3) Test for Herbicidal Effects in Paddy Field Soil Treatment
# (§4) A 100-cm^2 plastic pot was filled with paddy field soil. After puddling and leveling, seeds of Echinochloa oryzicola Vasing, Monochoria vaginalis (Burm. f.) Presl var. plantaginea (Roxb.) Solms-Laub., and Scirpus juncoides Roxb. var. ohwianus. T. Koyama were sowed, and the soil was waterlogged to a water depth of 3 cm. On the next day, a wettable powder formulation prepared according to Preparation Example 1 was diluted with water, and was added dropwise on the water surface. The amount of application was an amount equivalent to 1000 g of the active ingredient per hectare. Thereafter, the plants were grown in a greenhouse, and on the 21st day after the treatment, the herbicidal effects were investigated according to the criteria described in Table 138.
# [7] = tested on: Scirpus juncoides Roxb. var. ohwianus. T. Koyama; assay: as above; settings: paddy field soil treatment; 1000 g of the active ingredient per hectare; wettable powder added dropwise on water surface; 21st day after treatment
# Protocol: as §3, §4
# [8] = tested on: Echinochloa oryzicola Vasing; assay: as above; settings: paddy field soil treatment; 1000 g of the active ingredient per hectare; wettable powder added dropwise on water surface; 21st day after treatment
# Protocol: as §3, §4
Structure (SMILES),herbicidal effect (index) on Amaranthus viridis L. (Amaranthus viridis L. [1]),herbicidal effect (index) on Abutilon theophrasti medicus [2],herbicidal effect (index) on Echinochloa crus-galli (L.) P. Beauv. var. crus-galli [3],herbicidal effect (index) on Amaranthus viridis L. (Amaranthus viridis L. [4]),herbicidal effect (index) on Abutilon theophrasti medicus [5],"Herbicidal effects index, Monochoria vaginalis (Burm. f.) Presl var. plantaginea (Roxb.) Solms-Laub. [6]","Herbicidal effects index, Scirpus juncoides Roxb. var. ohwianus. T. Koyama [7]","Herbicidal effects index, Echinochloa oryzicola Vasing [8]"
Cn1c(=O)c(C(=O)C2=C(O)CCCC2=O)nc2ccc(S(C)(=O)=O)cc21 [I-247],5,5,4,,,,,
CSc1ccc2nc(C(=O)C3=C(O)CCCC3=O)c(=O)n(C)c2c1 [I-243],5,5,5,,,,,
O=C1CCCC(O)=C1C(=O)c1nc2ccccc2n(-c2ccc3c(c2)OCCCO3)c1=O [II-232],,,,5,4,5,5,4
Cc1ccc(-n2c(=O)c(C(=O)C3=C(O)CCCC3=O)nc3ccccc32)nc1 [I-178],,,,5,5,5,5,4
O=C1CCCC(O)=C1C(=O)c1nc2ccccc2n(-c2ccc3ccccc3c2)c1=O [I-264],,,,5,4,5,5,4
COc1ccc(-n2c(=O)c(C(=O)C3=C(O)CCCC3=O)nc3ccccc32)c(F)c1 [II-174],,,,5,4,5,5,5
O=C1CCCC(O)=C1C(=O)c1nc2ccccc2n(-c2ccc(Cl)nn2)c1=O [I-273],,,,5,5,5,5,5
CC1CC(C)C(O)=C(C(=O)c2nc3ccccc3n(-c3ccc4c(c3)OCCO4)c2=O)C1=O (stereo not drawn) [II-229],,,,5,4,5,5,5
O=C1CCCC(O)=C1C(=O)c1nc2cccc(Cl)c2n(-c2ccccc2)c1=O [II-193],,,,5,5,5,5,5
CN(C(=O)OC(C)(C)C)n1c(=O)c(C(=O)C2=C(O)CCCC2=O)nc2ccccc21 [I-278],,,,5,5,5,5,4
COc1c(F)cc(-n2c(=O)c(C(=O)C3=C(O)CCCC3=O)nc3c(F)cccc32)cc1F [II-235],,,,5,4,5,5,4
